Test results reported in US20120004244A1, “Bis Aromatic Compounds for Use as LTC4 Synthase Inhibitors” (BIOLIPOX AB, priority 2009, published 2012).

The compounds below were run against T1, Recombinant human LTC4 synthase (Homo sapiens, UniProt Q16873) (assay: LTC4 synthase in vitro assay (LTA4 to LTC4, HTRF detection)). Details: not given.
T1 construct: made in house; host or cells: Pichia pastoris ('Piccia pastoralis' [sic])
T1 sequence (Q16873 1-150): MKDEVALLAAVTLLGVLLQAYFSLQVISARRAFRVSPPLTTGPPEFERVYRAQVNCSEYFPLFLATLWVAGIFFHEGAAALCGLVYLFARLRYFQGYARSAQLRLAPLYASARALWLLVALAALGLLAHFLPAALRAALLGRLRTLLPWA
Format: biochemical
Outline: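 Purified recombinant human LTC4 synthase expressed in Pichia (0.5 μg/mL total protein) was preincubated with inhibitor at 10 μM final for 10 min at room temperature in PBS pH 7.4 with 5 mM GSH. LTA4 was then added at 2.5 μM final, and after 5 min at room temperature LTC4 was detected by HTRF.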
In the case of `C=CCN(c1ccc(C(=O)c2ccc(Oc3ccccc3)c(C(=O)O)c2)nc1)c1ccc(F)c(F)c1` [1:21, 5-{5-[(Allyl)(3,4-difluorophenyl)amino]picolinoyl}-2-phenoxybenzoic acid], the IC50 is reported as 295 nM. With `CN(c1ccc(Cl)cc1)c1ccc(C(=O)c2ccc(NC(=O)c3ccc(S(C)(=O)=O)cc3)c(C(=O)O)c2)nc1` [3:14, 5-{5-[(4-Chlorophenyl)(methyl)amino]picolinoyl}-2-(4-methylsulfonyl-benzamido)benzoic acid] the IC50 was 67 nM. `Cc1cc(Cl)ccc1N(C)c1ccc(C(=O)c2ccc(C(=O)c3ccccc3)c(C(=O)O)c2)nc1` [5:22, 2-Benzoyl-5-{5-[(4-chloro-2-methylphenyl)(methyl)amino]picolinoyl}benzoic acid] was tested, and the IC50 was 442 nM. In the case of `CN(c1ccc(Cl)cc1)c1ccc(C(=O)c2ccc(-n3nc(-c4cccc(Cl)c4)cc3C(F)(F)F)c(C(=O)O)c2)nc1` [18:5, 5-{5-[(4-Chlorophenyl)(methyl)amino]picolinoyl}-2-[3-(3-chlorophenyl)-5-trifluoromethylpyrazol-1-yl]benzoic acid], the IC50 is reported as 116 nM. Compound `CN(c1ccc(Cl)cc1)c1ccc(C(=O)c2ccc(NC(=O)c3ccc4c(c3)OCO4)c(C(=O)O)c2)nc1` [3:6, 5-{5-[(4-Chlorophenyl)(methyl)amino]picolinoyl}-2-(3,4-methylenedioxy-benzamido)benzoic acid] has an IC50 of 11 nM. Compound `CN(c1ccc(Cl)cc1)c1ccc(C(=O)c2ccc(NC(=O)c3ccccc3OC(F)(F)F)c(C(=O)O)c2)nc1` [3:12, 5-{5-[(4-Chlorophenyl)(methyl)amino]picolinoyl}-2-(2-trifluoromethoxy-benzamido)benzoic acid] has an IC50 of 104 nM. `COc1c(F)c(F)cc(C(=O)Nc2ccc(C(=O)c3ccc(N(C)c4ccc(Cl)cc4)cn3)cc2C(=O)O)c1F` [3:31, 5-{5-[(4-Chlorophenyl)(methyl)amino]picolinoyl}-2-(2,4,5-trifluoro-3-methoxy-benzamido)benzoic acid] was tested, and the IC50 was 61 nM. `O=C(c1ccc(Oc2ccccc2)c(C(=O)O)c1)c1ccc(N(CC2CC2)c2ccc(C(F)(F)F)cc2)cn1` [1:18, 5-{5-[(Cycloropylmethyl)(4-trifluoromethylphenyl)amino]picolinoyl}-2-phenoxybenzoic acid] was tested, and the IC50 was 141 nM. Compound `CN(c1ccc(Cl)cc1)c1ccc(C(=O)c2ccc(NCc3cccnc3)c(C(=O)O)c2)nc1` [2:9, 5-{5-[(4-Chlorophenyl)(methyl)amino]picolinoyl}-2-[(3-pyridylmethyl)amino]benzoic acid] has an IC50 of 466 nM. Compound `N#Cc1ccccc1Oc1ccccc1Oc1ccc(C(=O)c2ccc(N(CC3CC3)c3ccc(Cl)cc3)cn2)cc1C(=O)O` [1:32, 5-{5-[(4-Chlorophenyl)(cyclopropylmethyl)amino]picolinoyl}-2-[2-(2-cyanophenoxy)phenoxy]benzoic acid] has an IC50 of 20 nM. For `CC(C)(C)c1ccc(N(CC2CC2)c2ccc(C(=O)c3ccc(Oc4ccccc4)c(C(=O)O)c3)nc2)cc1` [1:20, 5-{5-[(4-tert-Butylphenyl)(cyclopropylmethyl)amino]picolinoyl}-2-phenoxybenzoic acid], the IC50 was 549 nM. With `O=C(c1ccc(Oc2ccccc2Oc2ccccn2)c(C(=O)O)c1)c1ccc(N(CC2CC2)c2ccc(Cl)cc2)cn1` [1:44, 5-{5-[(4-Chlorophenyl)(cyclopropylmethyl)amino]picolinoyl}-2-[2-(2-pyridyloxy)phenoxy]benzoic acid] the IC50 was 57 nM. `CN(c1ccc(Cl)cc1)c1ccc(C(=O)c2ccc(-n3nc(C(F)(F)F)cc3-c3ccc(Cl)cc3)c(C(=O)O)c2)nc1` [18:7, 5-{5-[(4-Chlorophenyl)(methyl)amino]picolinoyl}-2-[5-(4-chlorophenyl)-3-trifluoromethylpyrazol-1-yl]benzoic acid] gave an IC50 of 250 nM. Compound `O=C(Nc1ccc(C(=O)c2ccc(N(CC3CC3)c3ccc(Cl)cc3)cn2)cc1C(=O)O)c1ccc2c(c1)OCO2` [3:9, 5-{5-[(4-Chlorophenyl)(cyclopropylmethyl)amino]picolinoyl}-2-(3,4-methylene-dioxybenzamido)benzoic acid] has an IC50 of 21 nM. `CN(c1ccc(Cl)cc1)c1ccc(C(=O)c2ccc(C(=O)c3cccs3)c(C(=O)O)c2)nc1` [5:20, 5-{5-[(4-Chlorophenyl)(methyl)amino]picolinoyl}-2-(2-thienylcarbonyl)benzoic acid] was tested, and the IC50 was 104 nM. With `COc1ccc(C(=O)c2ccc(C(=O)c3ccc(N(CC(F)(F)F)c4ccc(Cl)cc4F)cn3)cc2C(=O)O)cc1` [5:6, 5-{5-[(4-Chloro-2-fluorophenyl)(2,2,2-trifluoroethyl)amino]picolinoyl}-2-(4-methoxybenzoyl)benzoic acid] the IC50 was 401 nM. Compound `COc1cccc(F)c1C(=O)Nc1ccc(C(=O)c2ccc(N(C)c3ccc(Cl)cc3)cn2)cc1C(=O)O` [3:30, 5-{5-[(4-Chlorophenyl)(methyl)amino]picolinoyl}-2-(2-fluoro-6-methoxybenz-amido)benzoic acid] has an IC50 of 26 nM. With `CN(c1ccc(Cl)cc1)c1ccc(C(=O)c2ccc(NC(=O)c3ccccc3)c(C(=O)O)c2)nc1` [3:3, 2-Benzamido-5-{5-[(4-chlorophenyl)(methyl)amino]picolinoyl}benzoic acid] the IC50 was 34 nM. For `CCOCCN(c1ccc(Cl)cc1)c1ccc(C(=O)c2ccc(Oc3ccccc3)c(C(=O)O)c2)nc1` [1:7, 5-{5-[(4-Chlorophenyl)(2-ethoxyethyl)amino]picolinoyl}-2-phenoxybenzoic acid], the IC50 was 171 nM. Compound `COc1ccc(OC)c(C(=O)Nc2ccc(C(=O)c3ccc(N(C)c4ccc(Cl)cc4)cn3)cc2C(=O)O)c1` [3:21, 5-{5-[(4-Chlorophenyl)(methyl)amino]picolinoyl}-2-(2,5-dimethoxybenzamido)-benzoic acid] has an IC50 of 25 nM. `CN(c1ccc(Cl)cc1)c1ccc(C(=O)c2ccc(Nc3cccc(S(C)(=O)=O)c3)c(C(=O)O)c2)nc1` [2:18, 5-{5-[(4-Chlorophenyl)(methyl)amino]picolinoyl}-2-(3-methylsulfonylphenyl-amino)benzoic acid] gave an IC50 of 188 nM. Compound `CN(c1ccc(Cl)cc1)c1ccc(C(=O)c2ccc(NC3CCSCC3)c(C(=O)O)c2)nc1` [2:19, 5-{5-[(4-Chlorophenyl)(methyl)amino]picolinoyl}-2-(4-tetrahydrothiopyranylamino)benzoic acid] has an IC50 of 149 nM. For `CN(c1ccc(Cl)cc1)c1ccc(C(=O)c2ccc(NC(=O)c3cccc(Br)c3)c(C(=O)O)c2)nc1` [3:38, 2-(3-Bromobenzamido)-5-{5-[(4-chlorophenyl)(methyl)amino]picolinoyl}benzoic acid], the IC50 was 68 nM. For `O=C(c1ccc(Oc2ccc(F)cc2)c(C(=O)O)c1)c1ccc(N(CC2CC2)c2ccc(Cl)cc2)cn1` [1:27, 5-{5-[(4-Chlorophenyl)(cyclopropylmethyl)amino]picolinoyl}-2-(4-fluorophenoxy)-benzoic acid], the IC50 was 52 nM. In the case of `O=C(c1ccc(Oc2ccccc2F)c(C(=O)O)c1)c1ccc(N(CC2CC2)c2ccc(Cl)cc2)cn1` [1:38, 5-{5-[(4-Chlorophenyl)(cyclopropylmethyl)amino]picolinoyl}-2-(2-fluorophenoxy)benzoic acid], the IC50 is reported as 79 nM. With `CN(c1ccc(Cl)cc1)c1ccc(C(=O)c2ccc(Nc3ccc(C(O)(C(F)(F)F)C(F)(F)F)cc3)c(C(=O)O)c2)nc1` [2:17, 5-{5-[(4-Chlorophenyl)(methyl)amino]picolinoyl}-2-[4-(1,1,1,3,3,3-hexafluoro-2-hydroxy-2-propyl)phenylamino]benzoic acid] the IC50 was 138 nM.

Same assay, conditions: 5 min; total concentration of title compound in the assay 10 μM
`C=CCN(c1ccc(C(=O)c2ccc(Oc3ccccc3)c(C(=O)O)c2)nc1)c1ccc(F)c(F)c1` [1:21, 5-{5-[(Allyl)(3,4-difluorophenyl)amino]picolinoyl}-2-phenoxybenzoic acid] showed an inhibition at 10 µM of 99%. `O=C(c1ccc(Oc2ccccc2)c(C(=O)O)c1)c1ccc(N(CC2CC2)c2ccc(C(F)(F)F)cc2)cn1` [1:18, 5-{5-[(Cycloropylmethyl)(4-trifluoromethylphenyl)amino]picolinoyl}-2-phenoxybenzoic acid] gave an inhibition at 10 µM of 100%. `CC(C)(C)c1ccc(N(CC2CC2)c2ccc(C(=O)c3ccc(Oc4ccccc4)c(C(=O)O)c3)nc2)cc1` [1:20, 5-{5-[(4-tert-Butylphenyl)(cyclopropylmethyl)amino]picolinoyl}-2-phenoxybenzoic acid] gave an inhibition at 10 µM of 100%. With `CCOCCN(c1ccc(Cl)cc1)c1ccc(C(=O)c2ccc(Oc3ccccc3)c(C(=O)O)c2)nc1` [1:7, 5-{5-[(4-Chlorophenyl)(2-ethoxyethyl)amino]picolinoyl}-2-phenoxybenzoic acid] the inhibition at 10 µM was 99%.
